Assay [1] concerns Rac1 activation in differentiated HL60 cells. Kind of assay: fMLP-induced Rac1 activation in differentiated HL60 cells. Conditions: 10 μM compound, 1 μM fMLP; result in words. It counts as cell-based, human. How it is done: Differentiated HL60 cells stably expressing GFP-PH-Akt were challenged with 250 nM fMLP in the presence and absence of 10 μM concentrations of the indicated compounds. Translocation of GFP-PH-Akt to the plasma membrane was evaluated by Western blot. Quantification shown below. ***, P<0.001 analysis of variance (ANOVA) is statistically different from control (PBS+vehicle). […] Differentiated HL60 cells were challenged with 1 μM fMLP in the presence and absence of 10 μM concentrations of the indicated compounds. Rac1 activation was assessed by Western blots of affinity-precipitated GTP-Rac1 from HL60 cell lysates. Western blot shown is representative of three independent experiments and quantitation contains data pooled from three independent experiments±S.E.M. *P<0.05 ANOVA is statistically different from control (DMSO only). n=3. […] Differentiated HL60 cells were challenged with 250 nM fMLP or 250 nM PMA in the presence and absence of 10 μM compounds or 100 nM Wortmannin (Wtmn). NADPH oxidase activity was determined after reaction with NBT by absorbance at 540 nm. Data shown is contains data pooled from three independent experiments (each in duplicate)±S.E.M. *, P<0.05 ANOVA is statistically different from control (DMSO only).
HL60 cells (differentiated for 4 days) were washed with and resuspended in NaCl buffer to a final concentration of 20×10^6 cells/ml. Cells (10×10^6/reaction) were pretreated with 10 μMGβγ inhibitor (in DMSO) for 10 min before challenge with 1 μM fMLP for 90 s in a 37° C. water bath and then immediately transferred to an ice-water bath. Cells were recovered by centrifugation at 500 g and washed two times with ice-cold Tris-buffered saline, pH 7.4. […] Chemiluminescence was analyzed using a charge-coupled device camera in a UVP Epi-Chem II Darkroom imaging system. Results were expressed as percent fMLP-stimulated GTP Rac1 normalized to total Rac1 with the background subtracted.

The next assay has as its target Gβ1γ2 (UniProt P54311+P63212). Kind of assay: Competition phage ELISA: inhibition of SIGK-phage binding to immobilized biotinylated Gβ1γ2. On the set-up: made in house; host or cells: Sf9 insect cells (baculovirus; co-expressed with BirA and (His)6-Gαi1, from which βγ was eluted); species or system rat. The method, then: Phage ELISA assays used to assess peptide binding to wild-type and mutant b-βγ were performed according to standard methods (Smrcka and Scott (2002) Methods Enzymol. 344:557-76). Briefly, 1 μg streptavidin was immobilized in the well of a […] overnight at 4° C. The wells were blocked with 100 μL of 2% bovine serum albumin (BSA) in Tris-buffered saline (TBS) for 1 hour at 4° C. followed by three washes of IX TBS/0.5% TWEEN®. […] The wells were washed, followed by the addition of IxIO^6 to IxIO^10 phage particles and incubated at 4° C. for 3 hours. The wells were then washed six times with TBS/0.5% TWEEN® followed by addition of 40 μL of 1:5000 dilution of anti-M13 antibody (Pharmacia, Uppsala, Sweden) and incubated at room temperature for 1 hour. The wells were washed, followed by the addition of 40 μL of (2,2′-Azino-bis (3-ethylbenzthiazoline)-6-sulfonic acid (ABTS) and the colorimetric reaction was monitored at 405 nm. Nonspecific binding was subtracted for each reading.
A phage ELISA assay was used to determine whether small molecules identified in the computational screen could interact with the Gβy protein interaction surface. […] The screen was based on a reduction in the optical density (OD) of wells containing Gβγ subunits and phage. […] Three background wells contained no βy subunits.
As disclosed herein, biotinylated Gβy subunits were immobilized on the surface of a 96-well plate coated with streptavidin, phage displaying Gβγ-binding peptides were subsequently added and binding in the presence and absence of test compounds detected with an anti-phage antibody.
The phage ELISA assay was used to rapidly screen the ability of compounds to bind to the protein interaction “hot spot” based on the method of Scott et. al (Scott et al., 2001). This assay is performed in the presence of detergent (0.5% Tween) to eliminate non-specific compound aggregation artifacts.
Compounds/DMSO and 0.1×10^10 phage were added simultaneously and subsequently incubated for 1 h at room temperature. Plates were then washed with 1× Tris-buffered saline/0.5% Tween 20 and incubated with anti-M13, HRP-conjugated antibody (Amersham, Chalfont St. Giles, Buckinghamshire, UK). Phage binding was determined by monitoring A405 upon addition of 2,2′-azino-bis(3-ethylbenzothiazoline-6-sulfonic acid) (Sigma Aldrich).
For orientation: An ELISA detects its analyte on a solid surface through an enzyme-linked reagent.

For orientation: IC50 means the concentration at which inhibition is half-maximal. A lower IC50 goes with inhibition by little substance.

Read-outs that look alike come from different tables or passages of the source.

As for `O=C(O)C1CCCCC1c1c2ccc(=O)cc-2oc2cc(O)ccc12` (stereo not drawn) [Compound M119B], the “effect on fMLP-induced Rac1 activation” value in assay [1] is recorded as “little effect”. Further, the “apparent affinity for Gβ1γ2 relative to M119” value at Gβ1γ2 was 1/1000.

With `O=C(O)C1CCCCC1c1c2ccc(=O)c(O)c-2oc2c(O)c(O)ccc12` (stereo not drawn) [Compound M119, cyclohexanecarboxylic acid, 2-(4,5,6-trihydroxy-3-oxo-3H-xanthen-9-yl)-(9cl)], the “effect on fMLP-induced Rac1 activation” value in assay [1] was “inhibited”. Besides, the IC50 worked out at 0.2 µM at Gβ1γ2 (ELISA, Table 19); 0.2 µM at Gβ1γ2 (IC50 μM, Table 18, compounds identified in Elisa screen); 0.1 µM at Gβ1γ2 (IC50, Table 8, last row); 0.2 µM on Gβ1γ2 (IC50 in phage ELISA (SIGK competition)).

In the case of `O=C(O)c1ccccc1-c1c2ccc(=O)c(O)c-2oc2c(O)c(O)ccc12` (racemic) [Gallein], the “effect on fMLP-induced Rac1 activation” value in assay [1] is given as “inhibited”. In addition, on Gβ1γ2, the IC50 amounted to 0.2 µM.

These data come from patent US8975259B2, “Compositions and methods for inhibiting G protein signaling” (University of Rochester, priority 2007, dated 2015).
